Test results: patent US6436929B1 (Wyeth, priority 1999, dated 2002)
Several values for one entry are separate records, joined by “and”; a condition that tells them apart may be missing. Equal values may be shown once. One block for each compound: values may come before it.

Tests used:
[1] = test system: rat uterine decidualization; assay: Rat decidualization assay; format: in vivo; conditions: s.c.; for Estimated average EC50: average over dose-response curves; for EC50: ovariectomized rats, uterine wet weight/decidual response, individual studies (Exp)
Protocol: The animals are treated once daily for seven days.
Uteri are removed and trimmed of fat.
Decidual response: [(D−C)/C]×100%

human PR = biological target: T1, human PR (Homo sapiens, UniProt P06401); assay: PRE-luciferase assay in CV-1 cells co-transfected with human PR and PRE-luciferase plasmids; format: cell-based; conditions: agonist mode, PRE-luciferase in CV-1 cells, Table 1; read-out: hPR CV-1 EC50
T1 construct: expressed in transfected cells; host or cells: CV-1 cells (electroporation with pLEM-hPR-B and pGL3-2xPRE-luciferase)
T1 sequence (P06401 1-933): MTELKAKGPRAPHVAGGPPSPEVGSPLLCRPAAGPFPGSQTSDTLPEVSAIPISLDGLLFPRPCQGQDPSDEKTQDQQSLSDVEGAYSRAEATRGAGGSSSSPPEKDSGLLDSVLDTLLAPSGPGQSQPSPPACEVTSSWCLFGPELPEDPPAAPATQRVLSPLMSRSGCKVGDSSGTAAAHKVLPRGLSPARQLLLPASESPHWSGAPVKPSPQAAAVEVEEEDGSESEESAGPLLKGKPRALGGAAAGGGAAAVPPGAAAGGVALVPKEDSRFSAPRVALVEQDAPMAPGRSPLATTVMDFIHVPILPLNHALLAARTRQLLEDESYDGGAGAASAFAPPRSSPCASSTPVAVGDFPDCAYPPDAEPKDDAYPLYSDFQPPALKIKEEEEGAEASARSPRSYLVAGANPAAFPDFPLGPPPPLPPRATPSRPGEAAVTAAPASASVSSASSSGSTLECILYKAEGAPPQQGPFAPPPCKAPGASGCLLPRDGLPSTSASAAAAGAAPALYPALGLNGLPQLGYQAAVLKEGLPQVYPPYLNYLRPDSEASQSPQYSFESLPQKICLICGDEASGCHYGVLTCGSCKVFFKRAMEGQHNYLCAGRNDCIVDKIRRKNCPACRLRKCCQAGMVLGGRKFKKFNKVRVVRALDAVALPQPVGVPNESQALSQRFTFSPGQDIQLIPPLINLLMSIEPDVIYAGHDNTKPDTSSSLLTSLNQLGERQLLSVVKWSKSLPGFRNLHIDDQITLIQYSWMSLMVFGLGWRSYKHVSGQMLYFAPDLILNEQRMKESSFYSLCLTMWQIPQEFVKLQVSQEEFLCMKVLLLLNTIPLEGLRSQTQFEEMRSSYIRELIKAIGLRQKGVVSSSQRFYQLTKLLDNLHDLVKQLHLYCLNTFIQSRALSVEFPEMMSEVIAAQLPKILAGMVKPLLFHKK
Protocol: The object of this assay is to determine a compound's progestational or antiprogestational potency based on its effect on PRE-luciferase reporter activity in CV-1 cells co-transfected with human PR and PRE-luciferase plasmids. The materials methods used in the assay are as follows.
Electroporation is carried out at 260 V and […] in a Biorad Gene Pulser II. After electroporation, cells are resuspended in growth medium and plated in 96-well plate at 40,000 cells/well in 200 μl. Following overnight incubation, the medium is changed to experimental medium Cells are then treated with reference or test compounds in experimental medium. […] Twenty-four hr. after treatment, the medium is discarded, cells are washed three times with D-PBS (GIBCO, BRL). Fifty μl of cell lysis buffer (Promega, Madison, Wis.) is added to each well and the plates are shaken for 15 min in a Titer Plate Shaker (Lab Line Instrument, Inc.).
Each treatment consists of at least 4 replicates. Log transformed data are used for analysis of variance and nonlinear dose response curve fitting for both agonist and antagonist modes. Huber weighting is used to downweight the effects of outliers. EC50 or IC50 values are calculated from the retransformed values.

Ovulation = Ovulation inhibition; format: in vivo; conditions: Table 1
T47D cells = assay: T47D cell proliferation assay (BrdU incorporation); format: cell-based; conditions: half-maximal increase in BrdU incorporation, individual studies (Exp)
Protocol: The objective of this assay is the determination of progestational and antiprogestational potency by using a cell proliferation assay in T47D cells. A compound's effect on DNA synthesis in T47D cells is measured.
DMEM:F12(1:1) (GIBCO, BRL) supplemented with 10% (v/v) fetal bovine serum (not heat-inactivated), 100 U/ml penicillin, […], and 2 mM GlutaMax (GIBCO, BRL).
Minimum Essential Medium (MEM) (#51200-038GIBCO, BRL) phenol red-free supplemented with 0.5% charcoal stripped fetal bovine serum, 100 U/ml penicillin, […] streptomycin, and 2 mM GlutaMax (GIBCO, BRL). […]
At the end of BrdU labeling, the medium is removed and BrdU incorporation is measured using a cell proliferation ELISA kit (#RPN 250, Amersham Life Science) according to manufacturer's instructions. […] Then 25 μl of 1 M sulfuric acid is added to each well to stop color reaction and optical density is read in a plate reader at 450 nm within 5 min.
Square root-transformed data are used for analysis of variance and nonlinear dose response curve fitting for both agonist and antagonist modes. […] EC50 or IC50 values are calculated from the retransformed values. […]

Structure (SMILES): C#C[C@]1(O)CC[C@H]2[C@@H]3CCC4=CC(=O)CC[C@@H]4[C@H]3C(=C)C[C@@]21CC [3-Ketodesogestrel]
- Estimated average EC50 [1]: 0.10 mg/kg
- EC50 [1]: 0.10 mg/kg and 0.06 mg/kg and 0.11 mg/kg

Structure (SMILES): CC1(C)OC(=S)Nc2ccc(-c3csc(C#N)c3)cc21 [Compound 2, 4-(4,4-Dimethyl-2-thioxo-1,4-dihydro-2H-benzo[d][1,3]oxazin-6-yl)-thiophene-2-carbonitrile]
- EC50 (human PR): 0.3 nM
- melting point: 242 to 243 °C
- Ovulation Inhibition ED100 (Ovulation): 1 mg/kg

Structure (SMILES): CC1(C)OC(=S)Nc2ccc(-c3sccc3C#N)cc21 [Example 66, 2-(4,4-Dimethyl-2-thioxo-1,4-dihydro-2H-3,1-benzoxazin-6-yl)thiophene-3-carbonitrile]
- melting point: 194 to 195 °C

Structure (SMILES): CC(=O)O[C@]1(C(C)=O)CC[C@H]2[C@@H]3C[C@H](C)C4=CC(=O)CC[C@]4(C)[C@H]3CC[C@@]21C [MPA, medroxyprogesterone acetate]
- EC50 (T47D cells; Homo sapiens, T47D): 0.019 nM

Structure (SMILES): C[C@H](O)C(=O)[C@@]1(C)CC[C@H]2[C@@H]3CCC4=CC(=O)CCC4=C3CC[C@@]21C [Trimegestone]
- EC50 (T47D cells): 0.017 nM and 0.014 nM and 0.019 nM

The next lines start with results.

- EC50 (human PR): 0.65 nM
- melting point: 183 to 184 °C
Structure (SMILES): CC1(C)OC(=S)Nc2ccc(-c3cccc(Cl)c3)cc21 [Compound 1, 6-(3-Chlorophenyl)-4,4-dimethyl-1,4-dihydro-benzo[d][1,3]oxazin-2-thione]

- EC50 (human PR): 5.1 nM
Structure (SMILES): CC1(C)OC(=S)Nc2ccc(-c3cc(F)cc(C#N)c3)cc21 [Compound 3, 3-(4,4-Dimethyl-2-thioxo-1,4-dihydro-2H-benzo[d][1,3]oxazin-6-yl)-5-fluorobenzonitrile]

- Estimated average EC50 [1]: 0.10 mg/kg
Structure (SMILES): C#C[C@]1(O)CC[C@H]2[C@@H]3CCC4=CC(=O)CC[C@@H]4[C@H]3CC[C@@]21CC [Levonorgestrel]
- EC50 [1]: 0.08 mg/kg and 0.12 mg/kg and 0.09 mg/kg (2×)
